Data on eight compounds can be found in PubChem BioAssay (NCI).

“And” between values parts separate entries of the source, which are not always exact repeats. Equal values may be shown once.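 Compound exposure: 48 hours, 5 concentrations, 96-well plates. The concentration for 50% growth inhibition is given as GI50. The concentration for full growth arrest is given as TGI.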

Test systems include A549 NSCLC; DU-145 prostate; EKVX NSCLC; HCT-15 colon; HL-60(TB) leukemia; NCI-H522 lung; OVCAR-3 ovarian; OVCAR-5 ovarian; SK-MEL-28 melanoma; SW-620 colon.
Holding throughout (assay): inhibition of tumour cell growth, NCI panel, 48 h

As for `CC(=O)Nc1c(I)c(C(=O)O)c(I)c(N(C)C(C)=O)c1I`, the GI50 in the assay with A549 NSCLC, in the assay with DU-145 prostate, with EKVX NSCLC, in the assay on HCT-15 colon, in the assay on HL-60(TB) leukemia and in the assay with NCI-H522 lung was more than 100 µM each time. The GI50 with OVCAR-3 ovarian, with OVCAR-5 ovarian, in the assay on SK-MEL-28 melanoma and in the assay on SW-620 colon was more than 100 µM each time. For the same compound, the TGI with A549 NSCLC, with DU-145 prostate, with EKVX NSCLC, in the assay on HCT-15 colon, in the assay with HL-60(TB) leukemia and in the assay on NCI-H522 lung was more than 100 µM throughout. Further, the TGI in the assay on OVCAR-3 ovarian, in the assay with OVCAR-5 ovarian, in the assay with SK-MEL-28 melanoma and in the assay on SW-620 colon was more than 100 µM throughout.
Take `O=C(O)CC1C(=O)OC2C3COC(=O)c4cc(O)c(O)c(O)c4-c4c(cc(O)c(O)c4O)C(=O)OC2C(OC(=O)c2cc(O)c(O)c4c2C1C(O)C(=O)O4)C(OC(=O)c1cc(O)c(O)c(O)c1)O3` (stereo not given): the TGI in the assay with A549 NSCLC is more than 100 µM; in the assay on DU-145 prostate, more than 100 µM; with EKVX NSCLC it was 66.8 µM; with HCT-15 colon, more than 100 µM; in the assay with HL-60(TB) leukemia it was 30.4 µM; in the assay with NCI-H522 lung, 46.6 µM. In addition, the TGI is 72.8 µM in the assay with OVCAR-3 ovarian, more than 100 µM in the assay on OVCAR-5 ovarian, more than 100 µM in the assay with SK-MEL-28 melanoma and more than 100 µM with SW-620 colon.
As to `O=S1CCN(Cc2ccc(-c3ccc4ncnc(Nc5ccc(OCc6ccccc6)c(F)c5)c4c3)o2)CC1`, the GI50 was 7.55 µM in the assay on A549 NSCLC; 4.56 µM in the assay with DU-145 prostate; 0.212 µM in the assay on EKVX NSCLC; 8.13 µM in the assay on HCT-15 colon; 8.32 µM in the assay with HL-60(TB) leukemia; 0.984 µM in the assay with NCI-H522 lung. In addition, the GI50 was 7.93 µM in the assay on OVCAR-3 ovarian, 13.9 µM in the assay with OVCAR-5 ovarian, 6.8 µM in the assay on SK-MEL-28 melanoma and 10.8 µM with SW-620 colon. For the same compound, the TGI was more than 25 µM in the assay on A549 NSCLC; more than 25 µM with DU-145 prostate; more than 25 µM in the assay on EKVX NSCLC; more than 25 µM in the assay on HCT-15 colon; 18.6 µM in the assay with HL-60(TB) leukemia; more than 20.1 µM with NCI-H522 lung. Further, the TGI with OVCAR-3 ovarian was more than 25 µM; in the assay on OVCAR-5 ovarian, more than 25 µM; in the assay on SK-MEL-28 melanoma it was more than 20.5 µM; in the assay on SW-620 colon it was more than 25 µM.
As to `O=C1NC(=O)C(N2CCc3ccccc32)=C1c1ccc(Cl)cc1`, the GI50 in the assay with A549 NSCLC was more than 25 µM; in the assay on DU-145 prostate, more than 25 µM; with EKVX NSCLC, more than 24.1 µM; in the assay on HCT-15 colon, more than 25 µM; in the assay on HL-60(TB) leukemia, 24.3 µM; in the assay with NCI-H522 lung, more than 25 µM. The GI50 in the assay on OVCAR-3 ovarian, in the assay with OVCAR-5 ovarian, in the assay with SK-MEL-28 melanoma and in the assay with SW-620 colon was more than 25 µM each time. Besides, the TGI with A549 NSCLC, with DU-145 prostate, in the assay with EKVX NSCLC, in the assay on HCT-15 colon, in the assay with HL-60(TB) leukemia and with NCI-H522 lung was more than 25 µM in each case. Also, the TGI with OVCAR-3 ovarian, with OVCAR-5 ovarian, with SK-MEL-28 melanoma and with SW-620 colon was more than 25 µM in each case.
As to `O=C1c2ccccc2C(=O)c2c(NCCNCCO)ccc(NCCNCCO)c21`, the GI50 was 0.195 µM and 0.183 µM and 0.123 µM in the assay on A549 NSCLC; 0.718 µM and 1.41 µM and 1.29 µM in the assay with DU-145 prostate; 1.97 µM and 3.65 µM in the assay with EKVX NSCLC; 10.1 µM and 14.8 µM and 11.2 µM with HCT-15 colon; 0.274 µM and 0.13 µM and 0.456 µM in the assay with HL-60(TB) leukemia; 0.482 µM and 0.452 µM and 0.267 µM in the assay with NCI-H522 lung. Also, the GI50 in the assay on OVCAR-3 ovarian was 2.41 µM and 2.86 µM and 2.72 µM; in the assay on OVCAR-5 ovarian it was 2.5 µM and 2.29 µM and 2.35 µM; in the assay on SK-MEL-28 melanoma it was 1.46 µM and 1.61 µM and 1.7 µM; in the assay on SW-620 colon, 1.15 µM and 1.08 µM and 0.838 µM. Also, the TGI is 6.92 µM and 9.37 µM and 6.34 µM with A549 NSCLC; 4.89 µM and 8.28 µM and 8.69 µM in the assay with DU-145 prostate; 10.4 µM and 26.3 µM in the assay on EKVX NSCLC; more than 100 µM in the assay on HCT-15 colon; 8.67 µM and 10.6 µM in the assay with HL-60(TB) leukemia; 5.48 µM and 2.22 µM and 1.32 µM in the assay on NCI-H522 lung. Moreover, the TGI in the assay on OVCAR-3 ovarian is 7.71 µM and 11.5 µM and 11 µM; in the assay with OVCAR-5 ovarian it was 9.5 µM and 10.9 µM and 11.5 µM; with SK-MEL-28 melanoma, 3.14 µM and 3.87 µM and 5.01 µM; in the assay with SW-620 colon, 11.8 µM and 13.5 µM and 11.3 µM.
Turning to `CCOC(=O)c1c(C(F)(F)F)n([O-])c2ccc(Cl)cc2[n+]1=O`, the GI50 in the assay with A549 NSCLC was 4.14 µM; in the assay on DU-145 prostate, 1.93 µM; in the assay on EKVX NSCLC, 2.05 µM; in the assay with HCT-15 colon, 1.52 µM; with HL-60(TB) leukemia, 1.93 µM; in the assay with NCI-H522 lung, 2.11 µM. For the same compound, the GI50 was 2.11 µM in the assay on OVCAR-3 ovarian, 1.76 µM in the assay on OVCAR-5 ovarian, 1.89 µM in the assay on SK-MEL-28 melanoma and 1.87 µM in the assay on SW-620 colon. Besides, the TGI worked out at 17.1 µM with A549 NSCLC; 3.5 µM in the assay with DU-145 prostate; 5.14 µM with EKVX NSCLC; 3.16 µM in the assay with HCT-15 colon; 4.07 µM with HL-60(TB) leukemia; 4.3 µM in the assay on NCI-H522 lung. In addition, the TGI stood at 3.93 µM in the assay with OVCAR-3 ovarian, 3.32 µM with OVCAR-5 ovarian, 3.58 µM with SK-MEL-28 melanoma and 3.74 µM in the assay with SW-620 colon.
On to `Cc1cc(NS(=O)(=O)c2ccc(NC(=O)COc3ccc(-c4cc5ccccc5[nH]4)cc3)cc2)no1`, for which the GI50 in the assay with A549 NSCLC was 2.18 µM; with DU-145 prostate it was 2.22 µM; with EKVX NSCLC, 2.32 µM; in the assay with HCT-15 colon, 2.32 µM; in the assay with HL-60(TB) leukemia, 2.84 µM; in the assay with NCI-H522 lung it was 1.79 µM. Besides, the GI50 in the assay on OVCAR-3 ovarian was 1.72 µM; with OVCAR-5 ovarian, 2.26 µM; in the assay on SK-MEL-28 melanoma, 1.55 µM; in the assay with SW-620 colon, 1.48 µM. For the same compound, the TGI with A549 NSCLC came to 6.39 µM; in the assay with DU-145 prostate, 5.18 µM; in the assay with EKVX NSCLC, 8.45 µM; in the assay with HCT-15 colon it was 7.35 µM; with HL-60(TB) leukemia, 32.6 µM; in the assay with NCI-H522 lung it was 4.09 µM. Moreover, the TGI in the assay with OVCAR-3 ovarian came to 3.75 µM; in the assay with OVCAR-5 ovarian, 5.68 µM; in the assay on SK-MEL-28 melanoma, 3.17 µM; in the assay on SW-620 colon, 3.52 µM.
For `Cc1cc2oc(=O)c(Cl)c(Cl)c2c(C)c1Cl`, the TGI with A549 NSCLC was found to be 37.3 µM; with DU-145 prostate, 27.8 µM; in the assay on EKVX NSCLC, 34.5 µM; in the assay with HCT-15 colon, 14.3 µM; in the assay with HL-60(TB) leukemia, 4.93 µM; in the assay with NCI-H522 lung, 28.3 µM. Besides, the TGI in the assay on OVCAR-3 ovarian came to 7.1 µM; in the assay with OVCAR-5 ovarian it was 27.8 µM; in the assay with SK-MEL-28 melanoma, 28.9 µM; in the assay on SW-620 colon, 2.94 µM.
